Experimental data as given in patent US6380181B1, “Synthetic catechol derivatives, method for production and use thereof” (priority 1996, dated 2002).
Where two headings read alike, the source gives them in different places.

Experiments:
Format in all cases: cell-based
[1] = tested on: Proteus mirabilis 12 (wild); conditions: Proteus mir. 12
Text: (§1) In the indicator mutants, the synthesis of the respective siderophores, e.g. pyoverdin, pyochelin, enterobactin, aerobactin or yersiniabactin, or the biosynthesis of aromatic compounds, is blocked, or there is a lack of receptors for enterobactin, pyochelin or pyoverdin and for other important components for the bacterial transport of iron (e.g. the membrane proteins Cir, Fiu, FepA and TonB). Under conditions where there is a lack of iron, these mutants therefore cannot grow or can only grow to a very slight extent. In particular, the following indicator mutants were used: Pseudomonas aeruginosa PAO 6609, K 407, 690; E. coli AB 2847, Salmonella typhimurium enb-7, TA 270; Klebsiella pneumoniae KN 4401; Yersinia enterocolitica WAH; Proteus mirabilis 12 (wild); Proteus vulgaris 718 (wild) and Morganella morganii SBK3 (wild). […] The controls used were ferrioxamine E for the Pseudomonas strains, ferrioxamine G and enterobactin for the Salmonella strains, ferrichrome for the E. coli, Klebsiella and Y. enterocol. strains, and 3,4-dihydroxybenzylidene-2,4,6-trimethylaniline for Morganella morganii (see the above literature reference by R. Reissbrodt et al.).
(§2) The annotations + and (+) relate to non-specific promotion of growth.

[2] = tested on: E. coli AB 2847; also: test concentration or dose not given here
Text: as §1, §2

[3] = tested on: Salmonella typhimurium TA 2700; also: test concentration or dose not given here
Text: as §1, §2

[4] = tested on: Pseudomonas aeruginosa K 407; conditions: Pseudomonas aeruginosa K407
Text: as §1, §2

[5] = tested on: Salmonella typhimurium enb-7; also: test concentration or dose not given here
Text: as §1, §2

[6] = tested on: Pseudomonas aeruginosa 690; also: test concentration or dose not given here
Text: as §1, §2

[7] = tested on: Pseudomonas aeruginosa PAO 6609
Text: as §1, §2

[8] = tested on: Morganella morganii SBK3 (wild)
Text: as §1, §2

[9] = tested on: Proteus vulgaris 718 (wild); conditions: Proteus vul. 718
Text: as §1, §2

[10] = tested on: Klebsiella pneumoniae KN 4401; conditions: Klebsiella KN 4401
Text: as §1, §2

Structure (SMILES) | Growth areas of siderophore indicator strains (diameter) [1] | Growth areas of siderophore indicator strains (diameter) [2] | Growth areas of siderophore indicator strains (diameter) [3] | Growth areas of siderophore indicator strains (diameter) [4] | Growth areas of siderophore indicator strains (diameter) [5] | Growth areas of siderophore indicator strains (diameter) [6] | Growth areas of siderophore indicator strains (diameter) [7] | Growth areas of siderophore indicator strains (diameter) ([8]; M. morg. SBK 3) | Growth areas of siderophore indicator strains (diameter) [9] | Growth areas of siderophore indicator strains (diameter) [10] | Growth areas of siderophore indicator strains (diameter) [8]
CC(=O)Oc1ccc(C=Nc2ccc(C(=O)O)cc2)cc1OC(C)=O [Substance 6, 4-(3,4-Diacetoxybenzylideneamino)-benzoic Acid] | 23 mm | 17 mm | 0 mm | 17 mm | 34 mm | 19 mm | 14 mm | 25 mm | 25 mm | 25 mm | –
COC(=O)Oc1ccc(C=Nc2cccc(C(=O)O)c2)cc1OC(=O)OC [Substance 1, 3-[3,4-di(Methoxycarbonyloxy)-benzylideneamino]-benzoic Acid] | 26 mm | 0 mm | 0 mm | 16 mm | 35 mm | 23 mm | 20 mm | 35 mm | 35 mm | 0 mm | –
CC(=O)Oc1ccc(N=Cc2cc(C(=O)O)cc(O)c2O)cc1OC(C)=O [Substance 7, 3-[(3,4-Diacetoxyphenylimino)-methyl]-4,5-dihydroxybenzoic Acid] | 20 mm | 0 mm | 0 mm | 0 mm | 0 mm | 0 mm | 0 mm | 22 mm | 22 mm | 23 mm | –
CC(=O)Oc1cccc(C(=O)N[C@@H](C)C(=O)O)c1OC(C)=O [Substance 20, L-2-(2,3-Diacetoxybenzoylamino)-propionic Acid] | – | 18 mm | 12 mm | 10 mm | 31 mm | 0 mm | – | – | – | – | –
O=C(O)C(=NNC(=O)c1ccc(O)c(O)c1)c1ccccc1 [Substance 9, [(3,4-Dihydroxybenzoyl)-hydrazono]-phenylacetic Acid] | 9 mm | 0 mm | 0 mm | – | 0 mm | 10 mm | – | – | – | 27 mm | –
CC(=O)Oc1cccc(C(=O)N[C@@H](CO)C(=O)O)c1OC(C)=O [Substance 23, L-2-[2,3-Diacetoxybenzoylamino)-3-hydroxypropionic Acid] | – | 22 mm | 20 mm | – | 27 mm | 14 mm | – | – | – | – | –
O=C(NCCC[C@@H](NC(=O)c1cccc(O)c1O)C(=O)O)c1cccc(O)c1O [Substance 24, D-2,5-Bis-(2,3-dihydroxybenzoylamino)-pentanoic Acid] | – | 40 mm | 40 mm | 20 mm | 50 mm | 20 mm | 20 mm | – | – | – | –
COC(=O)Oc1ccc(C(=O)NN=C(C(=O)O)c2ccccc2)cc1OC(=O)OC [Substance 12, {[3,4-di(Methoxycarbonyloxy)-benzoyl]-hydrazono}-phenylacetic Acid] | 17 mm | 14 mm | 0 mm | 0 mm | 0 mm | 12 mm | 14 mm | 15 mm | 20 mm | 30 mm | –
O=C(NCC[C@H](NC(=O)c1cccc(O)c1O)C(=O)O)c1cccc(O)c1O [Substance 21, L-2,4-Bis-(2,3-dihydroxybenzoylamino)-butyric Acid] | – | 33 mm | 40 mm | 15 mm | 36 mm | 15 mm | 14 mm | – | – | – | –
O=C(O)c1cccc(N=Nc2ccc(O)c(O)c2)c1 [Substance 8, 3-(3,4-Dihydroxyphenylazo)benzoic Acid] | 20 mm | 13 mm | 0 mm | 15 mm | 0 mm | 0 mm | 13 mm | 20 mm | 20 mm | 20 mm | –
CC(=O)Oc1cccc(C(=O)Nc2ccc(C(=O)O)cc2)c1OC(C)=O [Substance 17, 4-(2,3-Diacetoxy-benzoylamino)benzoic Acid] | – | 26 mm | – | – | 0 mm | – | 0 mm | 12 mm | – | – | –
O=C(NCCC[C@H](NC(=O)c1cccc(O)c1O)C(=O)O)c1cccc(O)c1O [Substance 18, L-2,5-bis-(2,3-Dihydroxybenzoylamino)-pentanoic Acid] | – | 30 mm | 50 mm | 17 mm | 48 mm | 18 mm | 20 mm | – | – | – | –
CC(=O)Oc1cccc(C(=O)Nc2ccccc2C(=O)O)c1OC(C)=O [Substance 16, 2-(2,3-Diacetoxy-benzoylamino)-benzoic Acid] | – | 24 mm | 10 mm | 20 mm | 25 mm | 20 mm | 20 mm | – | – | – | –
C[C@H](NC(=O)c1cccc(O)c1O)C(=O)O [Substance 19, L-2-(2,3-Dihydroxybenzoylamino)-propionic Acid] | – | 11 mm | 17 mm | 10 mm | 29 mm | 0 mm | – | – | – | – | –
O=C(NCCCCC(NC(=O)c1cccc(O)c1O)C(=O)NC[C@H](NC(=O)c1cccc(O)c1O)C(=O)O)c1cccc(O)c1O (stereo partly shown) [Substance 22] | – | 0 mm | 50 mm | 40 mm | 50 mm | 50 mm | 48 mm | – | – | – | –
CC(=O)Oc1cccc(C(=O)N2COC[C@H]2C(=O)O)c1OC(C)=O [Substance 26, (S)-3-(2,3-diacetoxybenzoyl)-oxazolidine-4-carboxylic Acid] | – | 14 mm | – | – | 32 mm | – | 0 mm | 10 mm | – | – | –
CC(=O)Oc1cccc(C(=O)NCCCC[C@H](NC(=O)c2cccc(OC(C)=O)c2OC(C)=O)C(=O)O)c1OC(C)=O [Substance 25, 1L-2,6-Bis-(2,3-diacetoxybenzoylamino)-hexanoic Acid] | – | 30 mm | – | – | 28 mm | – | 18 mm | – | – | – | 38 mm
